Results from PMC9029089, “1,5-Disubstituted Acylated 2-Amino-4,5-dihydroimidazoles as a New Class of Retinoic Acid Receptor–Related Orphan Receptor (ROR) Inhibitors” (International Journal of Molecular Sciences, 2022).
Where two headings read alike, the source gives them in different places.

What was measured:
Format in all cases: cell-based
RORβ = molecular target: T1, RORβ (Rattus norvegicus, UniProt P45446); test: Gal4-RORβ-LBD UAS-luciferase reporter assay in TRex-CHO-K1 cells (doxycycline-stimulated)
T1 construct: rRORβ (Pro 205-end); expressed in transfected cells
T1 sequence (P45446 205-459 isoform P45446-1): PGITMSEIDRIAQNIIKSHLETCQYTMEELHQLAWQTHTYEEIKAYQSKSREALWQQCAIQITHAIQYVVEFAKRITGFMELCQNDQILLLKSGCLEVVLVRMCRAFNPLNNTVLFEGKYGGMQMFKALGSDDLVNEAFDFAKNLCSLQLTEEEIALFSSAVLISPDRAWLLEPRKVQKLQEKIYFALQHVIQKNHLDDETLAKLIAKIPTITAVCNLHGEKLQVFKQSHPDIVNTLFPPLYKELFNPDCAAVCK
Description: To investigate the transcriptional activity of all three RORs, we generated stable cell lines expressing an UAS-driven luciferase reporter together with the corresponding Gal4-DNA binding domain fused to the ligand binding domains (LBDs) of mRORγ (Pro-261-end), hRORα (Pro-211-end), or rRORβ (Pro 205-end). The Gal4-DBD-ROR-LBD fusion proteins were subcloned in the pcDNA4/TO expression vector (Thermo Scientific) and transfected into TRex-CHO-K1 cells (Thermo Scientific) for tetracycline-controlled expression of the corresponding ROR proteins. Transfected cells were selected with hygromycin and Zeocin and individual clones for each of the Gal4-RORγ, Gal4-RORα, and Gal4-RORβ cell lines were isolated using a standard serial dilution protocol. Clones with the highest doxycycline-dependent stimulation of luciferase activity were selected for all functional experiments. All cell lines were maintained in complete Ham’s F12 medium containing 10% fetal bovine serum (FBS), 10 µg/mL blasticidine, 100 µg/mL hygromycin, and 100 µg/mL Zeocin and were used within 2 months of culture without any loss of doxycycline-dependent stimulation of luciferase activity.
(§1) For screening FIU libraries, cells were resuspended in Ham’s F-12 assay medium containing 2% charcoal-treated FBS and no selection drugs. Ten thousand cells per well were seeded in 30 µL of assay medium in 384 white plates with clear bottom (Greiner). Cells were allowed to attach for 2 h, followed by compound treatment and stimulation with 20 ng/mL doxycycline for an additional 16–20 h. Appropriate solvent controls, negative controls with no doxycycline, and blanks with no cells were included in every plate. Prior to measuring luciferase activity, 6 µL of 0.15 mg/mL resazurin (Cayman Chemical) in PBS were added and cells were incubated for 1 h at 37 °C. Fluorescence intensity was detected at 545 nm excitation/590 nm emission using a CLARIOstar reader (BMGLabtech) as a measure of cell viability, to identify any potential cytotoxic effect of test compounds and mixtures. Following the resazurin assay, the medium was removed and 20 µL of BriteLite-Plus luciferase reagent (Perking Elmer) were added; luminescence was measured in a CLARIOstar reader using a 384 aperture spoon and a 0.1 sec measuring time interval.
(§2) Luminescence was normalized by the fluorescence intensity and the percentage of inhibition was calculated with respect to control cells stimulated with doxycycline in the presence of solvent control (0.1% DMF). All primary screens with individual compounds were performed in triplicate with a final concentration of 5 µg/mL. […] IC50 values were calculated using GraphPrism (GraphPad software).

RORγ [1] = molecular target: T2, RORγ (Mus musculus, UniProt P51450); test: Gal4-RORγ-LBD UAS-luciferase reporter assay in TRex-CHO-K1 cells (doxycycline-stimulated)
T2 construct: mRORγ (Pro-261-end); expressed in transfected cells
T2 sequence (P51450 261-516 limits assumed): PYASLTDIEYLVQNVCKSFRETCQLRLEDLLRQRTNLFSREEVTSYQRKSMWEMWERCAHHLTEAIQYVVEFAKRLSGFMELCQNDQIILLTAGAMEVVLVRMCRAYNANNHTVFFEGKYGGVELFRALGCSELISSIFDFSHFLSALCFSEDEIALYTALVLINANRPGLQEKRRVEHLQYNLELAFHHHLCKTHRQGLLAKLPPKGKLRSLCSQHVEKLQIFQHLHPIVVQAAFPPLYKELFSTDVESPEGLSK
Description: (§3) The Gal4-DBD-ROR-LBD fusion proteins were subcloned in the pcDNA4/TO expression vector (Thermo Scientific) and transfected into TRex-CHO-K1 cells (Thermo Scientific) for tetracycline-controlled expression of the corresponding ROR proteins. Transfected cells were selected with hygromycin and Zeocin and individual clones for each of the Gal4-RORγ, Gal4-RORα, and Gal4-RORβ cell lines were isolated using a standard serial dilution protocol. Clones with the highest doxycycline-dependent stimulation of luciferase activity were selected for all functional experiments.
as §1, with “Ten thousand cells per well were seeded in 30 µL of assay medium in 384 white plates with clear bottom (Greiner).” left out, “mixtures.” for “mixtures. Following the resazurin assay, the medium was removed and 20 µL of BriteLite-Plus luciferase reagent (Perking Elmer) were added; luminescence was measured in a CLARIOstar reader using a 384 aperture spoon and a 0.1 sec measuring time interval.”
as §2

RORγ [2] = molecular target: T2, RORγ; test: as above; conditions: for % Inhibition at 4 μM (N=3): library 2520, RORγ cells
RORα = molecular target: T3, RORα (Homo sapiens, UniProt P35398); test: Gal4-RORα-LBD UAS-luciferase reporter assay in TRex-CHO-K1 cells (doxycycline-stimulated)
T3 construct: hRORα (Pro-211-end); expressed in transfected cells
T3 sequence (P35398 266-523): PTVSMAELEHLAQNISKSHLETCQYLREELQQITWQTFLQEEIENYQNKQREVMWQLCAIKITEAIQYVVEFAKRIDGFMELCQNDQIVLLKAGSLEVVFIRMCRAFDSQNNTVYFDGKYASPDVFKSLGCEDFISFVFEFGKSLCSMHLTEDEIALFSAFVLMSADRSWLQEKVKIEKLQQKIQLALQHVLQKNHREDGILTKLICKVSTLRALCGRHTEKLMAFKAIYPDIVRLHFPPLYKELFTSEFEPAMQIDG
Description: as §3
as §1, with “Ten thousand cells per well were seeded in 30 µL of assay medium in 384 white plates with clear bottom (Greiner).” left out, “mixtures.” for “mixtures. Following the resazurin assay, the medium was removed and 20 µL of BriteLite-Plus luciferase reagent (Perking Elmer) were added; luminescence was measured in a CLARIOstar reader using a 384 aperture spoon and a 0.1 sec measuring time interval.”
as §2

[3] = read-out: IC50 (μM, N=4) ROR-Beta, library 2520
[4] = read-out: IC50 (μM, N=4) ROR-Gamma, library 2520
[5] = read-out: IC50 (μM, N=4) ROR-Alpha, library 2520
[6] = IC50 (μM) (N=4) RORβ, individual controls of library 1295, second confirmatory dose response, Figure 2
[7] = IC50 (μM) (N=4) RORγ, individual controls of library 1295, second confirmatory dose response, Figure 2
[8] = T-REx-CHO-K1, read-out: % Inhibition RORγ 5 μg/ml
[9] = IC50 (μM) (N=4) RORα, individual controls of library 1295, second confirmatory dose response, Figure 2
[10] = T-REx-CHO-K1, individual controls 1295.201-307, 5 μg/ml, triplicate, read-out: % Inhibition RORγ 5 μg/ml
[11] = individual controls of library 1295, second confirmatory dose response, Figure 2

Compound | IC50 (RORβ; [6]) [µM] | IC50 (RORγ [1]; [7]) [µM] | inhibition at 5 µg/mL (RORγ [1]; [8]) [%] | IC50 (RORα; [9]) [µM] | inhibition at 5 µg/mL (RORγ [1]; [10]) [%] | IC50 (RORγ [1]; [11]) [µM] | further results
CCOc1ccc(C[C@H]2CN=C(NC(=O)C(C)C)N2CC2CCCCC2)cc1 [2520.48] | – | – | – | – | – | – | IC50 (RORβ; [3]): 6.57 ± 0.5 µM; IC50 (RORγ [1]; [4]): 9.27 ± 0.4 µM; % Inhibition at 4 μM (N=3) (RORγ [2]): 69.2%; IC50 (RORα; [5]): 9.61 ± 0.5 µM
CCOc1ccc(C[C@H]2CN=C(NC(=O)Cc3ccc(OC)cc3)N2CC2CCCCC2)cc1 [2520.42] | – | – | – | – | – | – | IC50 (RORβ; [3]): 5.21 ± 0.3 µM; IC50 (RORγ [1]; [4]): 5.17 ± 0.8 µM; % Inhibition at 4 μM (N=3) (RORγ [2]): 96.5%; IC50 (RORα; [5]): 5.4 ± 0.4 µM
CC(C)C(=O)NC1=NCC(Cc2ccccc2)N1CCC(C)c1ccccc1 (mixture of isomers) [2520.28] | – | – | – | – | – | – | IC50 (RORβ; [3]): 6.17 ± 0.3 µM; IC50 (RORγ [1]; [4]): 6.37 ± 0.4 µM; % Inhibition at 4 μM (N=3) (RORγ [2]): 69.8%; IC50 (RORα; [5]): 8.48 ± 0.4 µM
O=C(CCC1CCCCC1)NC1=NC[C@H](Cc2ccccc2)N1CCc1ccccc1 [1295.305] | 10.4 ± 0.7 | – | – | 10.3 ± 3.7 | 82.8 | 6.6 ± 1.4 | –
CC(C)(C)C(=O)NC1=NC[C@H](Cc2ccccc2)N1CCc1ccccc1 [1295.298] | 10.8 ± 0.4 | – | – | – | 94.7 | 10 ± 1.5 | IC50 (RORα; [11]): 9.6 ± 0.3 µM
CCOc1ccc(C[C@H]2CN=C(NC(=O)C(CC)c3ccccc3)N2CCC2CC3CCC2C3)cc1 (stereo partly drawn) [2520.47] | – | – | – | – | – | – | IC50 (RORβ; Figure 6, confirmatory experiment, N = 4, read-out: RORβ : IC50): 6.6 ± 0.4 µM; IC50 (RORβ; IC50 (μM, N=4) ROR-Beta, library 2520): 6.67 ± 0.4 µM; IC50 (RORγ [1]; IC50 (μM, N=4) ROR-Gamma, library 2520): 4.68 ± 0.2 µM; IC50 (RORγ [1]; RORγ : IC50, Figure 6, confirmatory experiment, N = 4): 4.6 ± 0.2 µM; inhibition at 4 µM (RORγ [2]; T-REx-CHO-K1, library 2520, RORγ cells, read-out: % Inhibition at 4 μM (N=3)): 51.3%; IC50 (RORα; IC50 (μM, N=4) ROR-Alpha, library 2520): 7.2 ± 0.4 µM
O=C(CC1CCCCC1)NC1=NC[C@H](Cc2ccccc2)N1CCc1ccccc1 [1295.299] | 12.7 ± 4.2 | 8.4 ± 1.5 | 89.6 | 14.1 ± 1.6 | – | – | –
O=C(Cc1ccccc1)NC1=NC[C@H](Cc2ccccc2)N1CCc1ccc(-c2ccccc2)cc1 [1295.248] | 12.1 | – | – | 10.1 | 91.5 | 5 | selectivity towards RORγ over RORα and RORβ (RORγ [1]; from IC50 values in reporter cells): two-fold selectivity
O=C(CCCC1CCCCC1)NC1=NC[C@H](Cc2ccccc2)N1CCc1ccccc1 [1295.300] | 12.3 ± 0.8 | – | – | 10.2 ± 0.4 | 82.8 | 8.7 ± 2 | –
CC1CCC(CN2C(NC(=O)Cc3ccccc3)=NC[C@@H]2Cc2ccccc2)CC1 (stereo partly drawn) [1295.269] | 9.3 ± 0.8 | 5.8 ± 0.6 | 104 | 9 ± 0.3 | – | – | –

Now from value to molecule, other results behind:

IC50 (RORβ; [6]) [µM] | IC50 (RORγ [1]; [7]) [µM] | inhibition at 5 µg/mL (RORγ [1]; [8]) [%] | IC50 (RORα; [9]) [µM] | inhibition at 5 µg/mL (RORγ [1]; [10]) [%] | IC50 (RORγ [1]; [11]) [µM] | Compound | further results
7.6 ± 0.3 | 5.8 ± 0.4 | 101 | 8.9 ± 0.4 | – | – | O=C(CC1CC2CCC1C2)NC1=NC[C@H](Cc2ccccc2)N1CCc1ccccc1 (stereo partly drawn) [1295.307] | –
9.4 ± 0.6 | 9.5 ± 2.6 | 97.8 | 9.7 ± 1.6 | – | – | CC1CCC(C(=O)NC2=NC[C@H](Cc3ccccc3)N2CCc2ccccc2)CC1 (stereo partly drawn) [1295.306] | –
